In patent publication US9119842B2, “Therapeutic meso-biliverdin IXα compositions and associated methods” (Utah State University, priority 2012, dated 2015):

Assays:
[1] = test system: pancreata / islet cells of donor rats; experiment: Islet cell yields after treatment of donor pancreata; assay type: in vivo, rat (Lewis); details: for Islet yield: P<0.05 vs control; for Islet yield at 100 μM relative to 10 μM: 100 μM through the pancreatic duct
Description: MBV and BV IXα (obtained from Frontier Scientific, Inc., Logan Utah) (both at 1, 10, or 100 μM) were administered to IVC-dissected animals through the pancreatic duct at 37° C. Control animals received no treatment. Pancreata were removed from donor rats (Lewis, BW>300 g), incubated with University of Wisconsin solution and preserved using the two-layer method. See Ito et al., Improvement of canine islet yield by donor pancreas infusion with a p38MAPK inhibitor, Transplantation 86(2): 321-329 (2008). After 20 to 22 hours, islet cells were isolated using the 2-step digestion method after distention with collagenase and then purified by discontinuous Ficoll gradient centrifugation in a COBE 2991 cell processor. See Matsumoto et al., Improvement of pancreatic islet cell isolation for transplantation, Proc. (Bayl. Univ. Med. Cent.) 20(4): 357-362 (2007). Islet cells were counted microscopically and the numbers converted to IEQ (number of islets equivalent to 150 um in diameter.

db/db and obese mice = experiment: Glucose tolerance in type 2 diabetes, db/db and obese mice; assay type: in vivo; details: example in present tense
Description: MBV (2, 20 and 100 mg kg^−1 daily) is orally administered to 5-week-old db/db and obese mice for 4 weeks. Control mice are given the same feed without added MBV. After 4 weeks, glucose tolerance and insulin tolerance tests are performed. See Ikeda et al., Biliverdin protects against the deterioration of glucose tolerance in db/db mice, Diabetologia 54:2183-2191 (2011). Insulin content is evaluated by immunostaining and ELISA. Oxidative stress markers (8-hydroxy-2′-deoxyguansosine and dihydroethidium staining) and expression of […] are evaluated in isolated islets.

[2] = test system: HRT 18 colon cancer cells xenograft; experiment: Xenograft colonic tumor model; assay type: in vivo, BALB/c nude mice; details: 1, 10 and 100 mg/kg twice daily intraperitoneally vs PBS; example in present tense
Description: (§1) HRT-18 cells are seeded in 6-well plates in a concentration of 25×10^4 cells per well. After 24 hours, incubation, cells are treated with MBV IXα (1, 10, and 100 μM) or phosphate buffered saline (PBS) as a control. Cells are washed, detached with trypsin and resolved in 1 mL of growth media. 100 μL of […] are then analyzed for cell number, viability and cell size. In a xenograft colonic tumor model (see Ollinger et al., Bilirubin Inhibits Tumor Cell Growth via Activation of ERK, Cell Cycle 6:3078-3085 (2007)), 2.5×10^6 HRT 18 colon cancer cells are injected subcutaneously into the lower flank of BALB/c nude mice. At 14 days, MBV treatment is begun by injection of 1, 10 and 100 mg/kg body weight or PBS (controls) twice daily intraperitoneally and tumor diameters are measured daily using a caliper.

[3] = test system: Rat thoracic aortic vascular smooth muscle (A7r5) cells; experiment: Suppression of angiotensin II-induced inflammation in A7r5 cells (superoxide anion, NADH/NADPH oxidase); assay type: cell-based; details: angiotensin II-treated A7r5 cells; example in present tense
Description: Rat thoracic aortic vascular smooth muscle (A7r5) cells cultured in Dulbecco's modified Eagle's medium supplemented with 10% fetal calf serum and 2 mM glutamine are exposed to various concentrations of angiotensin II and MBV for various lengths of time before harvesting. The cells are scraped into balanced salt solution, washed twice by centrifugation, and finally suspended at a density of 2×10^6 cells per mL in the same solution containing 10 mM glucose and 1 mg per mL bovine serum albumin. Superoxide anion levels (of suspensions with 9×10^5 cells) are measured with a luminometer and a commercial luminogen-based detection kit (LumiMax, Agilent Technologies. Inc.).
Angiotensin II and MBV-treated cells suspended in phosphate-buffered saline (with protease inhibitors) are disrupted at ice temperature using a Dounce homogenizer. The cell extracts are fractionated into microsomal membrane and cytosol fractions by standard differential centrifugation procedures. Microsomes, containing plasma and mitochondrial membranes, are recovered as pellets after centrifugation at 29,100 g for 20 min at 4° C. NADH/NADPH oxidase activities of the microsomal fractions are measured with a luminometer and a commercial luminogen-based kit (LumiMax, Agilent Technologies. Inc.).

[4] = biological target: T1, recombinant human liver BVR (Homo sapiens, UniProt P53004); experiment: BVR enzyme assay (Biliverdin Reduction Kit); assay type: biochemical; details: 10-fold dilution of 100 μg mL^−1, enzyme and NADPH, spectrophotometric 300-800 nm, up to 360 minutes
T1 construct: purchased Sigma-Aldrich (St. Louis, Mo.) CS1100; host or cells: Escherichia coli
T1 sequence (P53004 3-296): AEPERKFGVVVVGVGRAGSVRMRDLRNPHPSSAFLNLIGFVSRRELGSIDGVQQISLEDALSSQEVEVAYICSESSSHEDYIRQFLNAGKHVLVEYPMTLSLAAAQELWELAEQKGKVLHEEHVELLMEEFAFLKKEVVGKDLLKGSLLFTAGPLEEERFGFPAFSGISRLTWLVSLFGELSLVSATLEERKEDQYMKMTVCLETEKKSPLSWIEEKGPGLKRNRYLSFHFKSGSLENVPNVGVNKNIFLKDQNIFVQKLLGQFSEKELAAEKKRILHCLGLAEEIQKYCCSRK
Description: The Sigma-Aldrich (St. Louis, Mo.) Biliverdin Reduction Kit (catalog #CS1100) and method was used to determine biliverdin reductase (“BVR”) activities with MBV, BV IXα, or phycocyanobilin as substrates. The kit-supplied enzyme was human liver BVR expressed in a recombinant Escherichia coli strain. Before use, MBV, BV IXα, or phycocyanobilin, each at 100 μg mL^−1 in methanol, were diluted 10-fold in the kit-supplied assay buffer, mixed with enzyme and NADPH, and conversion to mesobilirubin IXα, bilirubin IXα, or phycocyanobilirubin was measured spectrophotometrically between 300 and 800 nm for up to 360 minutes.

[5] = test system: HRT-18 colon cancer cells; experiment: HRT-18 colon cancer cell proliferation in vitro; assay type: cell-based; details: 1, 10 and 100 μM vs PBS control; example in present tense
Description: as §1

[6] = test system: transplanted islet cells in recipient rats; experiment: Treatment of donor pancreata followed by islet cell autotransplantation; assay type: in vivo, rat (Lewis)
Description: Pancreata removed from donor rats (Lewis, BW>300 g) were infused with University of Wisconsin solution containing MBV or BV IXα at 1, 10, or 100 μM through the pancreatic duct and preserved using the 2-layer method in Hank's balanced salt solution containing 5% autologous serum as described in Example 5. After 20 to 22 hours, islets were isolated and 3000 IEQ/kg were autotransplanted by infusion into the portal vein of the corresponding rat.

[7] = 1 μM through the pancreatic duct
[8] = 10 μM through the pancreatic duct
[9] = infusion of pancreata through the duct before preservation

Compound	Increase of islet yield over non-treated controls ([1]; 1 μM) [fold]	Islet yield [1, 7] [IEQ/g]	Increase of islet yield over non-treated controls ([1]; 10 μM) [fold]	Islet yield [1, 8] [IEQ/g]	Islet yield at 100 μM relative to 10 μM [1]	Development of hyperglycemia and glucose intolerance (db/db and obese mice; 2, 20 and 100 mg kg^−1 daily orally, 4 weeks)	Levels of oxidative stress markers and NADPH oxidase activities (db/db and obese mice; oral feeding 4 weeks, compared to controls)	Apoptosis and Bax expression in islets from db/db mice (db/db and obese mice; oral feeding 4 weeks)	Insulin levels and Pdxl expression (db/db and obese mice; oral feeding 4 weeks)	Xenograft tumor formation in vivo [2]	Angiotensin II-induced inflammatory processes (NADH/NADPH oxidase activation, superoxide anion production) [3]	BVR activity with the compound as substrate (conversion to reduced product) [4]	HRT-18 colonic cell proliferation in vitro [5]	Islet cell yields (IEQ values) assessed by laser scanning cytometry ([6]; MBV-treated donor pancreata vs untreated control pancreata)	Tumor necrosis factor α expression (real-time RT-PCR) ([6]; MBV-treated group vs controls)	Plasma C peptide levels after glucagon challenge ([6]; animals receiving MBV-treated islets vs islets from untreated control pancreata)	Adverse effect on islet function [6, 9]	Islet cell apoptosis [6, 9]	Glycemia of recipient rats ([6]; rats transplanted with MBV-treated islets vs untreated islets)
C=CC1=C(C)/C(=C\c2[nH]c(/C=C3N=C(/C=C4/NC(=O)C(C)=C4C=C)C(C)=C/3CCC(=O)O)c(CCC(=O)O)c2C)NC1=O [BV IXα, Biliverdin (“BV”) IXα, reference compound]	1.04	1328±358	1.24	1616±451	did not increase islet yields beyond those with 10 μM concentration	–	–	–	–	–	–	–	–	–	–	–	–	–	–
meso-biliverdin IXα [MBV]	1.87	1599±475	1.54	1318±804	did not increase islet yields beyond those with 10 μM concentration	at least partially prevents	lower and normal compared to those of controls	decreases	increases	reduces	suppresses these inflammatory processes	kinetics that resembled those for BV IXα conversion to bilirubin IXα	reduces	higher	significantly lower	higher	no adverse effect on islet function	prevented islet cell apoptosis	more euglycemic
C/C=C1/C(=C\c2[nH]c(/C=C3N=C(/C=C4/NC(=O)C(CC)=C4C)C(C)=C/3CCC(=O)O)c(CCC(=O)O)c2C)NC(=O)C1C (stereo not shown) [phycocyanobilin, reference compound]	–	–	–	–	–	–	–	–	–	–	–	poor and relatively inactive catalytic substrate	–	–	–	–	–	–	–
